Results as given in patent US20160151403A1, “SMALL MOLECULE MODULATORS OF P53 FAMILY SIGNALING” (The Trustees of the University of Pennsylvania, priority 2006, published 2016).
“Also recorded” adds a separate entry of the source.

Tests used:
[1] = system: HCT116/p53(−/−) xenografts; assay: In vivo anti-tumor assay, HCT116/p53(-/-) xenografts in Balb/c nude mice; conditions: intra-peritoneal, #1 100 mg/kg, #14 50 mg/kg, #23 10 mg/kg; 7 days after treatment
Procedure: Balb/c nude mice were inoculated subcutaneously with 2 million HCT116/p53(−/−) cells in Matrigel on each flank. 6 mice were used in each group, in each of the two experiments. When the tumor mass reached about 3-5 mm, mice were treated with the compounds alone or following a single dose of TRAIL at 100 μg/mouse in experiment 1. At 7 days after treatment, mice were sacrificed and the tumor masses were weighted. The doses used were 100 mg/kg for #1, 50 mg/kg for #14, and 10 mg/kg for #23;
Balb/c nude mice (Charles River Laboratories, Wilmington, Mass.) were inoculated subcutaneously with 2 million HCT116/p53(−/−) cells in an equal volume of Matrigel. When tumor masses reached about 3-5 mm in diameter, mice were treated with the compounds alone by intraperitoneal injection or following a single intravenous dose of TRAIL at 100 μg/mouse. At 7 days after treatment, mice were sacrificed and the tumor masses were weighed. DLD1/PG13 cells were inoculated subcutaneously with 5 million cells. At 24 hours later mice were treated with selected compounds, and subsequently bioluminescence imaging was carried out after 16 hours as previously described [Wang, W. & El-Deiry, W. S. (2003) Cancer Biol Ther 2, 196-202].
Compounds #1, #14, #17, and #23 were tested in colon-tumor xenograft-bearing mice in order to evaluate their toxicities and potential anti-tumor effects (FIG. 4). […] The initial doses were chosen below maximal tolerated doses based on the NCI DTP toxicology databases for chemical compound testing in vivo so that mice would survive drug administration and allow subsequent evaluation of anti-tumor effects. p53-null HCT116 xenografts were first tested to document anti-tumor effects in p53-deficient tumors and an experiment to simulate therapy of established tumors was designed. A total of 2×10^6 p53-null HCT116 cells were implanted on opposite flanks subcutaneously in each of 6 nude mice in each group. When tumor masses grew to about 3-5 mm in diameter, drugs were administered intra-peritoneally (#1: 100 mg/kg; #14: 50 mg/kg; #23: 10 mg/kg), and on the next day additional groups received intravenous TRAIL (15) (100 μg/mice via the tail vein). Tumor weights were determined at 7 days later. […] Nonetheless in the future it may be possible to modify the structure of #17 or identify doses where synergistic interactions with TRAIL may be observed.

[2] = system: DR5 and p21 in HCT116/p53(+/+) cells; assay: Western blot of p53 target genes DR5 and p21 in HCT116/p53(+/+) cells; format: cell-based, human; conditions: parental HCT116 (p53+/+) cells, FIG. 2A
Procedure: (§1) FIGS. 2A-2B show protein levels of p53 target genes p21 and DR5 were induced by selected compounds in HCT/p53(+/+) cells (A) or HCT/p53(−/−) cells (B). In A, doses of compounds (μM) are listed above each lane. Cells treated with compounds were harvested and lysed for SDS-PAGE and immunoblotted with p21 or DR5 antibodies. Ran was used as a protein loading control. Doses of compounds in B were as follows: 2 μM for #15, 12 μM for #1 and #23, 20 μM for #20 and #32, 100 μM for #33, 200 μM for #5, #8, #12, #16, #17, and #22, and 400 μM for #3. The dose for adriamycin was 0.2 μg/ml. Cells were incubated for 16 hours at 37° C. with the various drugs prior to cell harvest;
(§2) Cells were collected and protein concentration was quantified by the Bio-Rad protein assay prior to SDS-PAGE. Proteins were transferred to a PVDF membrane (Immobilon-P, Millipore Corporation, Bedford, Mass.) by a semi-dry transfer apparatus (Bio-Rad Laboratories, Hercules, Calif.). The membranes with transferred proteins were blotted with 10% W/V non-fat dry milk and then incubated with the primary antibody and subsequently secondary antibodies, which were labelled by horseradish peroxidase, or infrared dyes (IR). Signals were visualized by either ECL (Amersham Pharmacia Biotech, England, UK) and exposed to an X-ray film, or scanned by the Odyssey Infared Imaging System (LI-COR Biosciences, Lincoln, Nebr.). Anti-p53, DO-1, was from Santa Cruz biotechnology, Inc. (Santa Cruz, Calif.), anti-p73 (AB-1) and anti-p21 (AB-1) were obtained from Calbiochem (San Diego, Calif.). Anti-ser20 of p53 Cell were obtained from Signaling Technology (Danvers, Mass.) and anti-DR5 antibody was obtained from Cayman Chemical (Ann Arbor, Mich.).
The chemical library screening was directed at restoring “p53 responses” in p53-deficient cells. The small molecules identified by the cell-based screening procedure appeared to be able to restore p53 responses in p53-deficient colon tumors and to eliminate viable cells. Their function was further tested on wild-type p53-expressing and p53-knockout HCT116 colon adenocarcinoma cell lines. A number of candidate modulators of signaling by the p53 family appeared to induce expression of p53 target genes such as p21 or DR5(13) either with or without stabilizing p53 protein in HCT116 cells (FIG. 2A).

[3] = system: DR5 and p21 in HCT116/p53(−/−) cells; assay: Western blot of p53 target genes DR5 and p21 in HCT116/p53(-/-) cells; format: cell-based, human; conditions: p53-null HCT116 cells, 16 hours, doses per compound in FIG. 2B
Procedure: as §1, §2
A number of selected compounds was further tested on HCT116/p53^−/− cells to verify the possibility of induction of p53 target gene expression in the absence of p53. […] The importance of this observation is in establishing that it is possible to identify small molecules with the potential to induce p53 target gene expression in p53-deficient cells.

[4] = system: p53 phosphorylation at ser20 and acetylation at lys382; assay: Western blot of p53 phosphorylation and acetylation (DNA damage signaling); format: cell-based, human; conditions: 16 h; for p53 acetylation at lys382: HCT116/p53(+/+) cells; for p53 phosphorylation at ser20: HCT116/p53(+/+)/PG13 and SW480 cells
Procedure: FIGS. 7A-7C show: p53 levels and posttranslational modifications after treatment by selected compounds. (A) HCT116/p53(+/+) cells were treated with adriamycin, compounds nos. 1, 14, 17, and 23 for 16 h, and p53 and acetylated p53 levels were detected by Western blot. Nonspecific bands (Lower) serve as a loading control. (B) HCT116/p53(+/+)/PG13 cells were treated with adriamycin or compounds as indicated for 16 h and p53, phosphorylated p53 (ser20) levels and firefly luciferase protein expression were detected by Western blot. (C) SW480 cells were treated with compounds as indicated for 16 h, and p53 and phosphorylated p53 (ser20) levels were detected by Western blot. CP, CP-31398;
as §2
In order to determine whether DNA damage signaling is involved in the mechanism of action of selected compounds, Western blot was used to test the status of phosphorylation and acetylation of p53, which are sensitive indicators of DNA damage.

SMILES | anti-tumor effect (tumor weights) [1] | expression of p53 targets DR5 and p21 proteins [2] | DR5 and p21 expression (p53 target genes) [3] | p53 acetylation at lys382 [4] | p53 phosphorylation at ser20 [4]
CO[C@H]1[C@@H](O)[C@@H](C)O[C@H](O[C@H]2[C@H](Oc3cccc4c(O)c5c(=O)oc6ccc(C)c7c(=O)oc(c34)c5c67)O[C@H](C)[C@H](O)[C@@H]2O)[C@@H]1O [#1] | anti-tumor effects were observed | increased expression of DR5 and p21 proteins | increasing expression of the p53 target genes DR5 and p21; also recorded: strongly induce p53 target gene expression |  | 
COc1cccc2c1C(=O)c1c(O)c3c(c(O)c1C2=O)CC(O)(/C(C)=N/O)CC3OC1CC(N)C(O)C(C)O1 (stereo not shown) [#14] | anti-tumor effects were observed | increased expression of DR5 and p21 proteins | increasing expression of the p53 target genes DR5 and p21; also recorded: strongly induce p53 target gene expression | strong inducers | strong inducers of p53 phosphorylation at ser20
COc1cccc2c1C(=N)c1c(O)c3c(c(O)c1C2=O)C[C@@](O)(C(C)=O)C[C@@H]3O[C@H]1C[C@H](N)[C@H](O)[C@H](C)O1 [#23] | anti-tumor effects were observed | increased expression of DR5 and p21 proteins | increasing expression of the p53 target genes DR5 and p21; also recorded: strongly induce p53 target gene expression | strong inducers | strong inducers of p53 phosphorylation at ser20
